Source: US20090280069A1, “PROGUANIL TO TREAT SKIN/MUCOSAL DISEASES” (Tolmar, Inc., priority 2008, published 2009)

How the values were obtained:
[1] = system: Propionibacterium acnes ATCC 6919; experiment: time kill assay, P. acnes; type: cell-based
Experimental: A microbiological study used a time kill assay with Propionibacterium acnes ATCC 6919 as an indicator of the antibacterial activity of proguanil. […] A broth only control as well as a solvent 10% DGME control were added to the vials so that the total test volume was 15 ml. One hundred μl of a freshly grown suspension of P. acnes 6919 was then added at time zero so that the initial bacterial suspension was between 10^7 and 10^8 CFU/ml. All test and control suspensions were then incubated under anaerobic conditions at 35° C. Aliquots of the test and control suspensions were removed at 24, 48, 72, and 96 hours and plated onto tryptic soy agar in triplicate using a spiral plater. These plates were incubated anaerobically at 35° C. for 3-5 days. Surviving P. acnes colonies were then counted and the CFU/ml of test and control suspensions calculated and graphed.

S. pyogenes ATCC 19615 = experiment: time kill assay, S. pyogenes (Group A); type: cell-based, Streptococcus pyogenes
Experimental: (§1) Streptococcus pyogenes (Group A) infections can lead to many skin disease syndromes. Impetigo, ecthyma, erysipelas, and cellulitis are all diseases caused by an infection of S. pyogenes. A microbiological study used a time kill assay with S. pyogenes ATCC 19615 as an indicator of the antibacterial activity of proguanil. […] A broth only control as well as a solvent 10% DGME control were added to the vials so that the total test volume was 15 ml. One hundred μl of a freshly grown suspension of the S. pyogenes was then added at time zero so that the initial bacterial suspension was between 10^7 and 10^8 CFU/ml. All test and control suspensions were then incubated under aerobic conditions at 35° C. Aliquots of the test and control suspensions were removed at 24, 48, and 72 hours and plated onto tryptic soy agar in triplicate using a spiral plater. These plates were incubated aerobically at 35° C. for 1-3 days. Surviving colonies were then counted and the CFU/ml of test and control suspensions calculated and graphed. The effects of proguanil on the S. pyogenes were observed.

[2] = system: Gardnerella vaginalis ATCC 14018; experiment: time kill assay, G. vaginalis; type: cell-based
Experimental: A time kill assay was used to test the effects of varying concentrations of proguanil on a culture of Gardnerella vaginalis ATCC 14018. An inoculum of G. vaginalis was prepared and inoculated in vials containing Brain Heart Infusion/Hemoglobin broth containing proguanil concentrations of 160, 80, 16, 8, 1.6 μg/ml. A growth control using phosphate buffered saline A (PBSA) plus a Brain Heart Infusion/Hemoglobin broth was used in place of the drug because it has no antimicrobial effect. DGME was the solvent used to dissolve the proguanil, accordingly, 10% DGME in broth was used as the solvent control. These inoculated broth solutions were then allowed to incubate for a period of 72 hours. Samples were taken at 0, 4, 24, 48 and 72 hours and spiral plated so the CFU/ml could be calculated.

[3] = system: C. minutissimum ATCC 23348; experiment: time kill assay, C. minutissimum; type: cell-based, Corynebacterium minutissimum
Experimental: as §1, with “Corynebacterium minutissimum is the causative agent of erythrasma, a superficial” for “Streptococcus pyogenes (Group A) infections can lead to many skin disease syndromes. Impetigo, ecthyma, erysipelas, and cellulitis are all diseases caused by an”, “the skin characterized by slowly spreading pruritic, reddish-brown macular patches.” for “S. pyogenes.”, “C. minutissimum” for “S. pyogenes”, “23348” for “19615”

For `CC(C)NC(=N)NC(=N)Nc1ccc(Cl)cc1` [Proguanil, N-(4-Chlorophenyl)-N′-(1-methylethyl)imidodicarbonimidic diamide], the bacteria eliminated ([1]; 160 μg/ml, by 24 hours) was 97-100%, the “Relative Sensitivity (Compared to Other Strains Tested)” value (“Relative Sensitivity” for short) ([1]; Propionibacterium acnes ATCC 6919) was “Sensitive” and the “Approximate Inhibitory Level” value ([1]; Propionibacterium acnes ATCC 6919, level at which partial or total inhibition of growth is observed) was 80 to 160 µg/mL. The “killing of P. acnes” value ([1]; between 0.16 and 16 μg/ml) was “not very effective”, the “effect on the bacteria” value (S. pyogenes ATCC 19615; 1.6 μg/ml) was “roughly followed the trend of the Mueller Hinton II broth control” and the “effect on the bacteria” value (S. pyogenes ATCC 19615; 8 μg/ml and 16 μg/ml, compared to Mueller Hinton II control) was “may be slightly inhibitory”. The “effect on the bacteria” value (S. pyogenes ATCC 19615; 80 μg/ml, lesser effect than 160 and 100 μg/ml) was “good growth inhibition”, the “effect on the bacteria” value (S. pyogenes ATCC 19615; 100 μg/ml, over 72 hours, single assay) was “substantial effect” and the CFU/ml (S. pyogenes ATCC 19615; 160 μg/ml, T=24, 48 and 72 hours) was 0 CFU/ml. For the same compound, the “effect on the bacteria” value (S. pyogenes ATCC 19615; 160 μg/ml, lowest CFU/ml at all time points) was “greatest effect”, the “Relative Sensitivity” value (S. pyogenes ATCC 19615; Streptococcus pyrogenes (Group A) ATCC 19615) was “Sensitive” and the “Approximate Inhibitory Level” value (S. pyogenes ATCC 19615; Streptococcus pyrogenes (Group A) ATCC 19615, level at which partial or total inhibition of growth is observed) was 80 to 160 µg/mL. For the same compound, the “effect on the bacteria” value ([2]; 160 μg/ml and 80 μg/ml, 4 hours through 72 hours) was “killing effect”, the inhibition of growth ([2]; 16, 8, and 1.6 μg/ml) was “no or little inhibition of growth” and the CFU/ml ([2]; 160 and 80 μg/ml, T=24, 48 and 72 hours) was 0 CFU/ml. For the same compound, the “Relative Sensitivity” value ([2]; Gardnerella vaginalis ATCC 14018) was “Very Sensitive”, the “Approximate Inhibitory Level” value ([2]; Gardnerella vaginalis ATCC 14018, level at which partial or total inhibition of growth is observed) was 80 µg/mL and the “effect on CFU/ml” value ([3]; 160 and 80 μg/ml, at 4 hours, 160 greater effect than 80) was “reduced the CFU/ml”. The CFU/ml ([3]; 160 and 80 μg/ml, by the 24 hour time point) was 0 CFU/ml, the “Relative Sensitivity” value ([3]; Corynebacterium minutissimum (ATCC 23348)) was “Very Sensitive” and the “Approximate Inhibitory Level” value ([3]; Corynebacterium minutissimum (ATCC 23348), level at which partial or total inhibition of growth is observed) was 80 µg/mL. The “effect compared to controls” value ([3]; all other test concentrations (1.6, 8, 16 μg/ml)) was “little effect”.
